Data set [1] concerns the target CYP2C19 (Homo sapiens, UniProt P33261). The experiment in a line: CYP2C19 inhibition (fluorescent substrate). The class given is in vitro ADME. As to conditions: CYP2C19, CEC substrate; read-out: Cyp IC50 2C19. In outline:
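Human CYP activity was followed by the fluorescence of the metabolized product of a known substrate, which falls as metabolism is inhibited. Compounds from 100 mM DMSO stocks were serially diluted 1:1 over 10 points in co-factor mix and preincubated 10 min at 37 °C. IC50 was fitted from signal versus concentration.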

In data set [2] the target is CYP3A4(BFC) (Homo sapiens, UniProt P08684). The experiment in a line: CYP3A4(BFC) inhibition (fluorescent substrate). It is filed as in vitro ADME. Conditions: read-out: Cyp IC50 3A4(BFC). Put shortly:
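Inhibition was followed as loss of fluorescent metabolite from a known substrate, with compound in co-factor mix as a 10-point 1:1 serial dilution (100 mM DMSO stock).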

In data set [3] the target is c-Raf-1 (Homo sapiens, UniProt P04049). The experiment in a line: c-Raf-1 biochemical kinase inhibition (AlphaScreen, biotin-MEK1 substrate). Conditions: 100 μM ATP. In outline:
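Raf kinases phosphorylating biotin-MEK1, reaction started with ATP at 100 μM final. Compounds tested at 8 points by serial dilution from a 0.1 mM DMSO stock.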
For orientation: Bead proximity is the source of the signal in Alpha formats.

The subject of data set [4] is SW620 colon adenocarcinoma cells (wild-type B-RAF). Description: SW620 cell growth inhibition (ATPlite). It is filed as cell-based. As to conditions: Homo sapiens, SW-620, 72 h; SW620, 3 days incubation. Put shortly:
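Cells plated overnight, then exposed 3 days at 37° C to 8-point 1:3 compound dilutions topping at 10 μM final. Viability read as ATPlite luminescence, proportional to cell number; IC50 from luminescence versus concentration.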
(In general: In ATP-based viability assays light output follows the ATP content of the culture.)

pIC50: −log10 of the molar value. Some results are limits rather than exact numbers.

The values that follow come from patent publication US8198273B2, “Compounds and methods for kinase modulation, and indications therefor” (Plexxikon Inc., priority 2009, dated 2012).

CYP2C19, sequence (P33261 whole entry): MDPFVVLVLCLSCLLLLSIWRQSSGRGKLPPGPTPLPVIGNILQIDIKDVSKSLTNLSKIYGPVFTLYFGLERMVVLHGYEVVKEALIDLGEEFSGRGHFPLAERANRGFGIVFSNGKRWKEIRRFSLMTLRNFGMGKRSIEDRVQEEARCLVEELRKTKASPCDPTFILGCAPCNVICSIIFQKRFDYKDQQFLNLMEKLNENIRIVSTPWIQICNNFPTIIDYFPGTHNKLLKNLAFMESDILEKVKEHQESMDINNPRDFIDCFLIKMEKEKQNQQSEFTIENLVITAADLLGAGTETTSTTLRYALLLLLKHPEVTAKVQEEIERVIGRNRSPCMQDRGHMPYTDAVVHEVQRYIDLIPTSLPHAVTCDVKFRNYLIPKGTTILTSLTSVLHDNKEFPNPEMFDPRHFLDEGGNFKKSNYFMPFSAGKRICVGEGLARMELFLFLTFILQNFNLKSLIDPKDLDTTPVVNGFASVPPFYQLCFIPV
CYP3A4(BFC), sequence (P08684 whole entry): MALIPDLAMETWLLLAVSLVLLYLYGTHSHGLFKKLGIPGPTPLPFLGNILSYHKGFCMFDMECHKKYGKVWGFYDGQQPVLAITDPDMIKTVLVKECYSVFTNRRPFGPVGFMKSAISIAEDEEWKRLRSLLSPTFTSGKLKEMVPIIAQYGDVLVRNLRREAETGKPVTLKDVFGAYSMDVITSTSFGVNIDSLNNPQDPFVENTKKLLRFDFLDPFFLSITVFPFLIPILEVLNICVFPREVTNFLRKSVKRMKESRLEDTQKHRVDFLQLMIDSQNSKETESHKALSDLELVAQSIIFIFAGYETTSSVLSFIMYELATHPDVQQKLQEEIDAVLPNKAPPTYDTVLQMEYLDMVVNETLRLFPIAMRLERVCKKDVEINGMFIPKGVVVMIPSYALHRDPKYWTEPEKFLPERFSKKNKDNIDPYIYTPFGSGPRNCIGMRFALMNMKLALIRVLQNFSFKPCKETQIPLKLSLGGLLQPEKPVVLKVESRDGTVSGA
c-Raf-1, sequence (P04049 whole entry): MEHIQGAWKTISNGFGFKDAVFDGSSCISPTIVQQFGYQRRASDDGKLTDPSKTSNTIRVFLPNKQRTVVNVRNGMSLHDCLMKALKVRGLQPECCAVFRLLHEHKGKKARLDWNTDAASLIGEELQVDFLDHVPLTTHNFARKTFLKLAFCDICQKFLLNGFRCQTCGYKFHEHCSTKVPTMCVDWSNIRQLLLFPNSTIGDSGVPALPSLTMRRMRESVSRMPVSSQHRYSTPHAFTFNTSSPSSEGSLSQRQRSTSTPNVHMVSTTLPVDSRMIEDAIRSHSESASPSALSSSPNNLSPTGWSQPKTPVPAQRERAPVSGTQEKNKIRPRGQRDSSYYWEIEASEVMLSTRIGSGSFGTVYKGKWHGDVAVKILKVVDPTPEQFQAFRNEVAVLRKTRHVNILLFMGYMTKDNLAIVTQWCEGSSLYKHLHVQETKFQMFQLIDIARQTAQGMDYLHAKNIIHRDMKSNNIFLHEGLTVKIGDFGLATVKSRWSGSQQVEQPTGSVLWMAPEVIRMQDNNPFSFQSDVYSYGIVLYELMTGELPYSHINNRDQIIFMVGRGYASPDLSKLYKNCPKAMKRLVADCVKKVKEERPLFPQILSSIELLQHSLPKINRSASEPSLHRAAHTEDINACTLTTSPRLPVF

In general, pIC50 refers to the IC50 on a negative log10 scale, so that one unit is a factor of ten. With `N#Cc1ccnc2[nH]cc(C(=O)c3c(F)ccc(NS(=O)(=O)c4cccc(F)c4)c3F)c12` [P-2039, N-[3-(4-Cyano-1H-pyrrolo[2,3-b]pyridine-3-carbonyl)-2,4-difluoro-phenyl]-3-fluoro-benzenesulfonamide], the negative logarithm of the IC50 (pIC50) is below 5.00 in data set [1], below 5.00 in data set [2], above 8.00 in data set [3] and below 5.00 in data set [4].
In the case of `N#Cc1cnc2[nH]cc(C(=O)c3c(F)ccc(NS(=O)(=O)c4cccnc4)c3F)c2c1` [P-2072, Pyridine-3-sulfonic acid [3-(5-cyano-1H-pyrrolo[2,3-b]pyridine-3-carbonyl)-2,4-difluoro-phenyl]-amide], the pIC50 was below 5.00 in data set [1], 5.00 to 5.30 in data set [2], above 8.00 in data set [3] and below 5.00 in data set [4].
Consider `CCCS(=O)(=O)Nc1ccc(F)c(C(=O)c2c[nH]c3ncc(-c4ccc(NC(C)=O)nc4)cc23)c1F` [P-2193, N-(5-{3-[2,6-Difluoro-3-(propane-1-sulfonylamino)-benzoyl]-1H-pyrrolo[2,3-b]pyridin-5-yl}-pyridin-2-yl)-acetamide], for which the negative logarithm of the IC50 (pIC50) in data set [1] is 5.00 to 5.30; in data set [2], 5.00 to 5.30; in data set [3], above 8.00; in data set [4] it was below 5.00.
As for `COc1ncc(-c2cnc3[nH]cc(C(=O)c4c(F)ccc(NS(=O)(=O)c5ccccc5F)c4F)c3c2)cn1` [P-2041, N-{2,4-Difluoro-3-[5-(2-methoxy-pyrimidin-5-yl)-1H-pyrrolo[2,3-b]pyridine-3-carbonyl]-phenyl}-2-fluoro-benzenesulfonamide], the pIC50 was below 5.00 in data set [1], below 5.00 in data set [2], above 8.00 in data set [3] and below 5.00 in data set [4].
With `CCCS(=O)(=O)Nc1ccc(F)c(C(=O)c2c[nH]c3ncc(-c4ccc(OCCN5CCCC5)nc4)cc23)c1F` [P-2233, Propane-1-sulfonic acid (2,4-difluoro-3-{5-[6-(2-pyrrolidin-1-yl-ethoxy)-pyridin-3-yl]-1H-pyrrolo[2,3-b]pyridine-3-carbonyl}-phenyl)-amide], the pIC50 in data set [1] was 5.00 to 5.30; in data set [2], below 5.00; in data set [3] it was above 8.00; in data set [4], below 5.00.
As for `CCCS(=O)(=O)Nc1ccc(F)c(C(=O)c2c[nH]c3ncc(-c4ccc(N5CCCC5)nc4)cc23)c1F` [P-2231, Propane-1-sulfonic acid {2,4-difluoro-3-[5-(6-pyrrolidin-1-yl-pyridin-3-yl)-1H-pyrrolo[2,3-b]pyridine-3-carbonyl]-phenyl}-amide], the pIC50 is 5.00 to 5.30 in data set [1], below 5.00 in data set [2], above 7.00 in data set [3] and above 5.30 in data set [4].
On the same counts, the results for `CCCS(=O)(=O)Nc1ccc(F)c(C(=O)c2c[nH]c3ncc(-c4ccc(OCCN5CCOCC5)nc4)cc23)c1F` [P-2232, Propane-1-sulfonic acid (2,4-difluoro-3-{5-[6-(2-morpholin-4-yl-ethoxy)-pyridin-3-yl]-1H-pyrrolo[2,3-b]pyridine-3-carbonyl}-phenyl)-amide] are below 5.00, below 5.00, above 8.00 and below 5.00.
Regarding `CCCS(=O)(=O)Nc1ccc(F)c(C(=O)c2c[nH]c3ncc(-c4cccc(S(C)(=O)=O)c4)cc23)c1F` [P-2228, Propane-1-sulfonic acid {2,4-difluoro-3-[5-(3-methanesulfonyl-phenyl)-1H-pyrrolo[2,3-b]pyridine-3-carbonyl]-phenyl}-amide], the pIC50 in data set [1] was below 5.00; in data set [2], below 5.00; in data set [3] it was above 8.00; in data set [4], below 5.00.
Take `COc1ncc(-c2cnc3[nH]cc(C(=O)c4c(F)ccc(NS(=O)(=O)c5cccc(F)c5)c4F)c3c2)cn1` [P-2045, N-{2,4-Difluoro-3-[5-(2-methoxy-pyrimidin-5-yl)-1H-pyrrolo[2,3-b]pyridine-3-carbonyl]-phenyl}-3-fluoro-benzenesulfonamide]: the pIC50 is below 5.00 in data set [1], below 5.00 in data set [2], above 8.00 in data set [3] and below 5.00 in data set [4].
